# Counter-ions that a name gives are not always drawn.
# Experiments:
# [1] = Hygroscopicity of wet crystals; assay type: physicochemical; conditions: wet crystals during filtration
# Procedure: The volume of the solution of 15 from the previous step was adjusted to 60 L with ethyl acetate and EtOH (4.8 L) was added. The MsOH (316 mL) was added in 3 L of EtOAc at 45° C. To the deep red homogeneous solution was added 496 g of the title compound Form I seed (10% seed based on the weight of the free amine was employed). The temperature rose to ca. 48° C. and the reaction was aged at 52° C. for 1.5 hours. Analysis indicated complete conversion to the title compound (Form I). (At less than 10% seed longer age (>3 hours) was required). The slurry was allowed to cool to 20° C. overnight and was filtered in a centrifuge under N2. The cake was washed with 20 L of 8% EtOH in EtOAc. […] The batch was dried at 35° C. under vacuum to afford 2.7Kg (56% overall yield) of the title compound (Form I) (99.9 A % purity; <0.1% enantiomer).
# physchem = assay type: physicochemical; conditions: solid state, initial compound present
# Procedure: As a mimic of the tablet formulation process, a concentrated solution of N-[1(R)-[(1,2-dihydro-1-methanesulfonylspiro[3H-indole-3,4'-piperdin]-1'-yl)carbonyl]-2-(phenylmethyloxy)ethyl]-2-amino-2-methylpropanamide methanesulfonate (118 mg) in 120 μL 25% aqueous ethanol (980 mg/ml) was evaporated at 40° C. to give a solid. The lack of crystallinity was confirmed by X-ray analysis.
# After 12 weeks at 40° C., 100% of the initial compound was present; after 12 weeks at 60° C., 99.7% of the initial compound was present; after 12 weeks at 80° C., 97.8% of the initial compound was present.
# [2] = Flow properties of bulk drug; assay type: physicochemical; conditions: as a bulk drug
# growth hormone = assay: Growth hormone secretagogue assay described by Smith, et al., Science, 260, 1640-1643 (1993); assay type: cell-based; conditions: assay of Smith et al., Science 1993
# Description: Such a result is indicative of the activity of the formulation of the present invention as a growth hormone secretagogue.
# [3] = Stability of the compound in standard pharmaceutical formulations; assay type: physicochemical
compound,measurement,setting,value
"CC(C)(N)C(=O)N[C@H](COCc1ccccc1)C(=O)N1CCC2(CC1)CN(S(C)(=O)=O)c1ccccc12 [Compound 16, N-[1(R)-[(1,2-Dihydro-1-methanesulfonylspiro[3H-indole-3,4'-piperdin]-1'-yl)carbonyl]-2-(phenylmethyloxy)ethyl]-2-amino-2-methylpropanamide mesylate]",hygroscopicity,[1],very hygroscopic
"CC(C)(N)C(=O)N[C@H](COCc1ccccc1)C(=O)N1CCC2(CC1)CN(S(C)(=O)=O)c1ccccc12 [amorphous form, N-[1(R)-[(1,2-dihydro-1-methanesulfonylspiro[3H-indole-3,4'-piperdin]-1'-yl)carbonyl]-2-(phenylmethyloxy)ethyl]-2-amino-2-methylpropanamide methanesulfonate]",remaining at 2016 h,physchem,100%
"CC(C)(N)C(=O)N[C@H](COCc1ccccc1)C(=O)N1CCC2(CC1)CN(S(C)(=O)=O)c1ccccc12 [active ingredient, N-[1(R)-[(1,2-dihydro-1-methane-sulfonyl-spiro[3H-indole-3,4'-piperdin]-1'-yl)carbonyl)-2-(phenyl-methyl-oxy)ethyl]-2-amino-2-methyl-propanamide]",flow properties,[2],poor flow properties
same,activity as a growth hormone secretagogue,growth hormone,had activity as a growth hormone secretagogue
same,stability in standard pharmaceutical formulations,[3],relatively unstable

# Reference: patent publication US6123964A, “Wet granulation formulation of a growth hormone secretagogue” (priority 1998, dated 2000)
